Assays:
[1] = tested on: Sprague-Dawley rats treated with lipopolysaccharide (septic shock model); test: experimental model of septic shock: lipopolysaccharide-treated conscious rats, hemodynamic measurements and deaths; type: in vivo, rat; settings: for number of treated rats that died: lipopolysaccharide-treated rats, 22 rats received L-NAME, 12 rats S-methyl cysteine; for mean arterial pressure after treatment: rats 72 hours after lipopolysaccharide 0.5 mg/kg i.p., L-NAME 25 μmole/kg or S-methyl-L-cysteine 200 nmol/kg infusion for 10 minutes + 500 nmol/kg bolus; for total peripheral resistance after treatment (in words): L-NAME 25 μmole/kg or S-methyl-L-cysteine 200 nmol/kg infusion + 500 nmol/kg bolus
Experimental: Male 16 week old Sprague-Dawley rats were anesthetized for surgical placement of intraaortic pressure tranducers and Dopplar flow probes around the abdominal aorta and the left main coronary artery. After 48 hours of recovery baseline measurements of arterial blood pressure, cardiac output (as Dopplar flow), and coronary blood flow (Dopplar) were obtained in conscious unrestrained animals. The rats were then treated with intraperotoneal injections of purified lipopolysaccharide 0.5 mg/kg. After 72 hours when the induction of iNOS had produced a fall in blood pressure, measurements were repeated. Each rat then received either 25 μmole/kg of the nitric oxide synthase inhibitor L-NAME or an infusion of 200 nmol/kg of S-methyl-L-cysteine for 10 minutes followed by a 500 nmol/kg bolus dose of S-methyl-L-cysteine. The measurements were then repeated a third time.

[2] = tested on: hypotensive effects of infused S-nitrosocysteine; test: inhibition of the hypotensive effects of infused S-nitrosocysteine; settings: in vivo
[3] = rats 72 hours after lipopolysaccharide, L-NAME 25 μmole/kg
[4] = rats 72 hours after lipopolysaccharide

SMILES	number of treated rats that died [1]	mean arterial pressure after treatment [1]	coronary resistance after treatment [1, 3]	heart rate after treatment [1, 3]	total peripheral resistance after treatment [1, 3]	total peripheral resistance after treatment (in words) [1, 4]	coronary blood flow after treatment ([1]; rats 72 hours after lipopolysaccharide, L-NAME 25 μmole/kg, Doppler)	cardiac output after treatment ([1]; rats 72 hours after lipopolysaccharide, L-NAME 25 μmole/kg, Doppler flow)	mean arterial pressure after treatment ([1]; listed as S-methyl cysteine)	coronary blood flow after treatment (in words) ([1]; rats 72 hours after lipopolysaccharide, S-methyl-L-cysteine 200 nmol/kg infusion for 10 minutes + 500 nmol/kg bolus)	effect on the hypotensive effects of infused S-nitrosocysteine [2]
COC(=O)[C@@H](N)CCCNC(=N)N[N+](=O)[O-] [L-NAME, Nω-nitro-L-arginine methyl ester, reference compound]	7	returned mean arterial pressure to baseline values	about 160 % of baseline values	about 60 % of the pre-treatment values	about 160 % of baseline values	increased total peripheral resistance far above normal	about 60 % of the pre-treatment values	about 60 % of the pre-treatment values	–	–	–
CSC[C@H](N)C(=O)O [S-methyl-L-cysteine]	none died	attenuated the hypotension induced by lipopolysaccharide	–	–	–	returned to normal values	–	–	returned mean arterial pressure to baseline values	to pre-treatment values	inhibit the hypotensive effects of infused S-nitrosocysteine

— US7226766B2, “S-methylcysteine, S-ethylcysteine, and related S-alkylthiols as antagonists to the effects of S-nitrosothiols and nitric oxide” (University of Iowa Research Foundation, priority 2001, dated 2007)
